One may read the pKa as the negative logarithm of the acid dissociation constant.

The nature of series [1]: Determination of pKa value of monomer having hydrophilic group by NaOH titration.
Experimental: (§1) In a water/acetone mixture (10/15 ml) solution was poured 0.7865 g of CH2═CHCH2C(CF3)2OH, followed by stirring at room temperature. After it was confirmed that the solution was homogeneous, titration was carried out with about 0.2 mol/L NaOH solution. A titration curve was obtained by adding the NaOH solution dropwise in increments of 0.15 ml and recording a pH value at every addition. An equivalence point was determined by an inflection point (maximum differential value of titration curve=dpH/dml) of the titration curve.
Series [2] is described as follows: physchem.
Experimental: as §1
Where [3] appears, read: water/acetone mixture, pKa, monomer having hydrophilic group used in the Preparation Example, corrected.
[4] abbreviates: monomer having hydrophilic group used in the Preparation Example, NaOH titration in water/acetone, corrected.

“And” between values parts separate entries of the source, which are not always exact repeats. Equal entries are not always repeated.

As for `C=C(C(=O)O)C(F)(F)F` [2-(trifluoromethyl)acrylic acid], the pKa in series [1] (setting [3]) came to 3.9.

`C=C(F)C(F)(F)OC(F)(C(F)(F)F)C(F)(F)OC(F)(CO)C(F)(F)F` (centres unmarked) [(1,1,9,9-tetrahydro-2,5-bistrifluoromethyl-3,6-dioxa-8-nonenol)]: the pKa in series [1] (setting [4]) was 12.6. For the compound `C=CCC(O)(C(F)(F)F)C(F)(F)F` [CH2═CHCH2C(CF3)2OH, 1,1-bistrifluoromethyl-3-buten-1-ol], the “pKa value (single titration)” value in series [1] (NaOH titration in water/acetone, pH at half equivalence point minus blank difference) was 9.64 and 9.54. In addition, the pKa in series [1] (water/acetone mixture, pKa value (decided from experiments carried out three times), NaOH titration in water/acetone) turned out to be 9.6; in series [1] (water/acetone mixture, pKa value (single titration), NaOH titration in water/acetone, pH at half equivalence point minus blank difference), 9.69; in series [1] (setting [3]), 9.6.

Consider `O=C(O)/C=C\C(=O)O` [Maleic acid], for which the pKa in series [1] (setting [3]) came out at 1.4. In series [2], `C=C(F)C(F)(F)OC(F)(C(=O)O)C(F)(F)F` (centres unmarked) [perfluoro-(6,6-dihydro-2-trifluoromethyl-3-oxa-5-hexenoic acid)] registered a pKa of 3.4. As to `C=C(F)C(F)(F)OC(F)(C(F)(F)F)C(F)(F)OC(F)(C(=O)O)C(F)(F)F` (centres unmarked) [perfluoro-(9,9-dihydro-2,5-bistrifluoromethyl-3,6-dioxa-8-nonenoic acid)], the pKa in series [1] (setting [4]) is given as 3.6. The same measure, in the same setting: the figure for `C=C(F)C(F)(F)OC(F)(C(F)(F)F)C(F)(F)OC(F)(C(F)(F)F)C(F)(F)OC(F)(C(=O)O)C(F)(F)F` (centres unmarked) [perfluoro-(12,12-dihydro-2,5,8-tristrifluoromethyl-3,6,9-trioxa-11-dodecenic acid)] is 3.8.

With `C=C(F)C(F)(F)OC(F)(C(F)(F)F)C(F)(F)OC(F)(C(F)(F)F)C(F)(F)OC(F)(C(F)(F)F)C(F)(F)OC(F)(C(=O)O)C(F)(F)F` (centres unmarked) [perfluoro-(15,15-dihydro-2,5,8,11-tetrakistrifluoromethyl-3,6,9,12-tetraoxa-14-pentadecenic acid)], in series [1] (setting [4]), the pKa is recorded as 4.0.
